Several values for one entry are separate records, joined by “and”; a condition that tells them apart may be missing. Equal values may be shown once.
Key:
recombinant human MMP12 = molecular target: T1, recombinant human MMP12 (Homo sapiens, UniProt P39900); assay: MMP12 colorimetric thiopeptide enzyme inhibition assay (Abcam); format: biochemical
T1 construct: purchased Abcam
Protocol: The enzyme inhibition potential of synthesized p-chlorocinnamic acid derivatives against MMP12 was assessed using the Abcam colorimetric assay.
The inhibitory activity of the newly synthesized compounds against MMP12 was assessed using a previously established enzymatic assay protocol, as described in our earlier study. In brief, we conducted a colorimetric thiopeptide-based inhibition assay for MMP12 using recombinant human MMP12 and the reference inhibitor NNGH as a positive control. The IC50 values were calculated using GraphPad Prism version 9 (GraphPad Software, San Diego, CA, USA).

A549 lung cancer cells = assay: MTT cell viability assay, A549; format: cell-based, human
Protocol: (§1) To evaluate the impact of MMP12 inhibitors on lung cancer cell lines, an MTT assay was performed on A549, H1299, and H661 cells exposed to varying concentrations of inhibitors over 48, 72, and 96 h.
(§2) The lung cancer cell lines referenced as A549, H1299, and H661 were acquired from the American Type Culture Collection (ATCC, Manassas, VA, USA). Fibroblast cells of dermal origin were used as a model for normal human tissue, which were also purchased from ATCC. A549, H1299, and H661 cells were maintained in the RPMI culture medium, while fibroblast cells were maintained in the DMEM high glucose culture medium. Both RPMI and DMEM culture media were supplemented with 100 U/mL penicillin, 0.1 mg/mL streptomycin to prevent bacterial growth, 10% FBS to promote cell growth, and 2 mM L-glutamine as an energy source.
(§3) The 3-(4,5-dimethylthiazol-2-yl)-2,5-diphenyltetrazolium bromide (MTT) assay was employed to evaluate cell proliferation as previously noted. All experiments were performed in triplicate wells and were repeated at least twice independently. The percentage of the relative cell viability of treated cells versus the untreated cells (negative controls) was calculated using the following formula in Equation (1) (cell viability calculation):(1) Cell viability%=optical density of treated cells/optical density of untreated cells×100

H1299 lung cancer cells = assay: MTT cell viability assay, H1299; format: cell-based, human
Protocol: as §1, §2, §3

H661 lung cancer cells = assay: MTT cell viability assay, H661; format: cell-based, human
Protocol: as §1, §2, §3

CD44 mRNA in H1299 cells = assay: qPCR gene expression, CD44; format: cell-based, human; conditions: H1299, 0.1 IC50, 72 h
Protocol: (§4) Quantitative real-time PCR (qPCR) was used to assess the impact of MMP12 inhibition in H1299 lung cancer cells.
(§5) Quantitative real-time PCR (qPCR) was conducted as previously described. Lung cancer cell lines (A549, H1299, H661) were seeded at approximately 4 × 10^5 cells per T-25 flask and incubated for 24 h. […] Total RNA was extracted, reverse-transcribed into cDNA, and qPCR was performed using SYBR Green on an Applied Biosystems platform, Foster City, CA, USA. Gene expression was normalized to GAPDH, and the fold-change was calculated using the 2^−ΔΔCt method. The basal expression of MMP12 in untreated A549, H1299, and H661 cells was assessed using the 2^−ΔCt method. Primer sequences and annealing temperatures (Ta) are listed in Table S2 (Supplementary Materials).

[1] = system: NFKBIA mRNA in H1299 cells; assay: qPCR gene expression, NFKBIA; format: cell-based, human; conditions: H1299, 0.1 IC50, 72 h
Protocol: as §4, §5

[2] = system: PSME3 mRNA in H1299 cells; assay: qPCR gene expression, PSME3; format: cell-based, human; conditions: H1299, 0.1 IC50, 72 h
Protocol: as §4, §5

[3] = system: ADAM9 mRNA in H1299 cells; assay: qPCR gene expression, ADAM9; format: cell-based, human; conditions: H1299, 0.1 IC50, 72 h
Protocol: as §4, §5

[4] = system: APOA1 mRNA in H1299 cells; assay: qPCR gene expression, APOA1; format: cell-based, human; conditions: H1299, 0.1 IC50, 72 h
Protocol: as §4, §5

[5] = system: CCL15 mRNA in H1299 cells; assay: qPCR gene expression, CCL15; format: cell-based, human; conditions: H1299, 0.1 IC50, 72 h
Protocol: as §4, §5

[6] = system: MMP12 mRNA in H1299 cells; assay: qPCR gene expression, MMP12; format: cell-based, human; conditions: H1299, 0.1 IC50, 72 h
Protocol: as §4, §5

[7] = system: MMP12 protein in H1299 cells; assay: Western blot of MMP12 protein expression; format: cell-based, human; conditions: for Normalized MMP-12 (to GAPDH), Western blot: untreated H1299 0.9696
Protocol: Western blotting was conducted to assess the protein expression of MMP12 in lung cancer cell lines (A549, H1299, and H661), following the protocol established earlier. In summary, cells were seeded and incubated for 24 h. […] Total protein lysates were prepared, separated by SDS-PAGE, and transferred to nitrocellulose membranes. These membranes were then probed with primary antibodies against MMP12 and GAPDH. The protein bands were visualized using an HRP substrate and analyzed for relative expression.

H1299 cells [8] = assay: Cell cycle analysis (PI staining, flow cytometry); format: cell-based, human; conditions: H1299, ½ IC50, 48 h
Protocol: Cell cycle distribution was evaluated in H1299 cells using a modified version of the method described. […] After the treatment period, the cells were fixed with ethanol, stained with a propidium iodide/RNase A solution, and analyzed using a BD FACSCanto II flow cytometer. The data were processed with BD FACSDiva software version 8 (BD Biosciences, San Jose, CA, USA).

H1299 cells [9] = assay: Annexin V-FITC/PI apoptosis assay (flow cytometry); conditions: H1299, double IC50, 72 h
Protocol: Apoptosis was assessed using Annexin-V/PI staining, following the method described earlier with minor modifications [84]. […] After the treatment, the cells were collected and stained with Annexin-V-FITC and propidium iodide. The stained cells were then analyzed using a BD FACSCanto II flow cytometer (Becton, Dickinson and Company (BD), Franklin Lakes, NJ, USA) and FACSDiva software (Becton, Dickinson and Company (BD), Franklin Lakes, NJ, USA).

[10] = relative to untreated, GAPDH normalized

T1 sequence (P39900 106-470): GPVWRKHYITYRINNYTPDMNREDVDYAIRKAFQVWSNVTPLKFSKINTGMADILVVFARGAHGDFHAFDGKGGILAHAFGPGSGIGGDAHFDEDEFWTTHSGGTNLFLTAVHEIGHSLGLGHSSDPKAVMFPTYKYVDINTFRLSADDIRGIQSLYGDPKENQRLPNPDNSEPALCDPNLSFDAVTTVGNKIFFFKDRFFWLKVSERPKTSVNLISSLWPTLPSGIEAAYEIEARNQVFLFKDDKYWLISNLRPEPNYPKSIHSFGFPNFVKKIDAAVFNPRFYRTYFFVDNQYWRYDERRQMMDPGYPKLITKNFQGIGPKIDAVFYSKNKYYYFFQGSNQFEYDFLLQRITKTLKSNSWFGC

O=C(/C=C/c1ccc(Cl)cc1)Nc1ccc(C(=O)c2ccccc2)cc1 [Compound C1]
inhibition at 50 µM (recombinant human MMP12): 32.9%
IC50 (A549 lung cancer cells; A549, 72 h): 118 µM
IC50 (A549 lung cancer cells; Homo sapiens, A549, 48 h): 198 µM
IC50 (A549 lung cancer cells; Homo sapiens, A549, 72 h): 119 µM
IC50 (A549 lung cancer cells; Homo sapiens, A549, 96 h): 82 µM
IC50 (H1299 lung cancer cells; H1299, 72 h): 91 µM and 91.7 µM
IC50 (H1299 lung cancer cells; Homo sapiens, NCI-H1299, 48 h, H1299, 48 h): 359 µM
IC50 (H1299 lung cancer cells; Homo sapiens, NCI-H1299, 72 h, H1299, 72 h): 91.7 µM
IC50 (H1299 lung cancer cells; Homo sapiens, NCI-H1299, 96 h, H1299, 96 h): 99.7 µM
IC50 (H661 lung cancer cells; H661, 72 h): 34 µM
IC50 (H661 lung cancer cells; Homo sapiens, NCI-H661, 48 h, H661, 48 h): 60.4 µM
IC50 (H661 lung cancer cells; Homo sapiens, NCI-H661, 72 h, H661, 72 h): 33.9 µM
IC50 (H661 lung cancer cells; Homo sapiens, NCI-H661, 96 h, H661, 96 h): 129 µM
CD44 Fold Change (2^−ΔΔCt) (CD44 mRNA in H1299 cells; [10]): 0.48
CD44 % Change (CD44 mRNA in H1299 cells; vs untreated control): −52%
NFKBIA Direction [1]: Up
NFKBIA Fold Change (2^−ΔΔCt) [1, 10]: 24.33
NFKBIA % Change ([1]; vs untreated control): +2333%
PSME3 Fold Change (2^−ΔΔCt) [2, 10]: 0.54
PSME3 % Change ([2]; vs untreated control): −46%
ADAM9 Direction [3]: Up
ADAM9 Fold Change (2^−ΔΔCt) [3, 10]: 123.60
ADAM9 % Change ([3]; vs untreated control): +12,260%
APOA1 Fold Change (2^−ΔΔCt) [4, 10]: 0.79
APOA1 % Change ([4]; vs untreated control): −21%
CCL15 Fold Change (2^−ΔΔCt) [5, 10]: 0.03
CCL15 % Change ([5]; vs untreated control): −97%
MMP12 Fold Change (2^−ΔΔCt) [6, 10]: 0.78
MMP12 % Change ([6]; vs untreated control): −22%
MMP12 protein suppression (Western blot), in words ([7]; H1299, 0.1, ¼ and ½ IC50): less effective
Normalized MMP-12 (to GAPDH), Western blot ([7]; H1299, 0.1 IC50, 72 h): 0.6296
Normalized MMP-12 (to GAPDH), Western blot ([7]; H1299, ¼ IC50, 72 h): 0.3747
Normalized MMP-12 (to GAPDH), Western blot ([7]; H1299, ½ IC50, 72 h): 0.1966
cells in G2/M phase (H1299 cells [8]): 9.1%
cells in S phase (H1299 cells [8]): 36.5%
cells in G0/G1 phase (H1299 cells [8]; untreated 62.5%): 47.4%
Necrosis (%) (Annexin−/PI+, Q1-UL) (H1299 cells [9]; control 0.7): 1.9%
Late Apoptosis (%) (Annexin+/PI+, Q1-UR) (H1299 cells [9]; control 2.6): 2.9%
Early Apoptosis (%) (Annexin+/PI−, Q1-LR) (H1299 cells [9]; control 8.7): 16.6%
Total Apoptosis (%) (H1299 cells [9]; control 11.3): 19.5%
